# According to US5210089A, “D-rhamnono-1,5-lactone” (Monsanto Company, priority 1992, dated 1993):
# Key:
# cytosolic β-glucosidase = molecular target: T1, cytosolic β-glucosidase (Homo sapiens, UniProt Q9H227); test: Human liver glycosidase assay, cytosolic β-glucosidase; assay type: biochemical; conditions: for inhibition at 1000 µM: 1 mM compound; for IC50: read-out: I50, cytosolic β-glucosidase
# T1 construct: human liver extracts; from tissue; host or cells: human liver extracts
# T1 sequence (Q9H227 1-469): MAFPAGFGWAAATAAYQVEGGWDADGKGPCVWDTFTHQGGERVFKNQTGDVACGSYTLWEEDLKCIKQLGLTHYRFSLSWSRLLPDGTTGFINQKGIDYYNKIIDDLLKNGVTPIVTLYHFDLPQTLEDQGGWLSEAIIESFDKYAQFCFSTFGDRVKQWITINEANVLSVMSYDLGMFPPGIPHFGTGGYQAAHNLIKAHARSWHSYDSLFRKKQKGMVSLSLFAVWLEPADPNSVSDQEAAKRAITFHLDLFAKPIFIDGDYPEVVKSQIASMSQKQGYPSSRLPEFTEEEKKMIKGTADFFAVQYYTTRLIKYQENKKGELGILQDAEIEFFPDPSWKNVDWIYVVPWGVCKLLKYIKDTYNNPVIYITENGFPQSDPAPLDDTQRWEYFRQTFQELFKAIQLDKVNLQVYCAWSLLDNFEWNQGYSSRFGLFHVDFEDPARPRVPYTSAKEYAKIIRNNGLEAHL
# Procedure: Melting points were recorded on a Kofler hot block. Proton nuclear magnetic resonance (δH) spectra were recorded on Varian Gemini 200 (at 200 MHz), Bruker WH 300 (300 MHz), or Bruker AM 500 (500 MHz) spectrometers. Carbon nuclear magnetic resonance (δC) spectra were recorded on a Varian Gemini 200 (50 MHz) or a Bruker 250 (62.9 MHz) spectrometer. Multiplicities were assigned using DEPT sequence on the Gemini and by off resonance decoupling on the Bruker. Spectra run in D2 O were referenced to methanol as an internal standard. All chemical shifts are quoted on the δ-scale. Infrared spectra were recorded on a Perkin-Elmer 297, or on a Perkin-Elmer 781 spectrophotometer. Mass spectra were recorded on VG Micromass 30F, ZAB lF, Masslab 20-250 or Trio-1 GCMS (DB-5 column) spectrometers using desorption chemical ionization (NH3 DCI), electron impact (EI), chemical ionization (NH3 CI) and fast atom bombardment (FAB) techniques, as stated. […] Concentrations were given in g/100 ml. Hydrogenations were run under an atmosphere of hydrogen gas maintained by inflated balloon. Microanalyses were performed by the microanalysis service of the DysonPerrins laboratory, Oxford UK. Thin layer chromatography (t.l.c.) was carried out on aluminum sheets coated with 60F254 silica. Plates were developed using either 5% v/v concentrated sulphuric acid in methanol, 0.2% w/v cerium (IV) sulphate and 5% ammonium molybdate in 2M sulphuric acid and 0.5% ninhydrin in methanol. Flash chromatography was carried out using Sorbsil C60 40/60 silica. Ion-exchange chromatography was performed using Dowex 50W-X8 (H) and Sigma CG 400 (Cl) resins. The resins were washed with 2M hydrochloric acid and 2M sodium hydroxide solution, respectively, and subsequently with distilled water, prior to use. Solvents and commercially available reagents were dried and purified before use according to standard procedures; dichloromethane was refluxed over and distilled from calcium hydride, N,N-dimethylformamide was distilled under reduced pressure from calcium hydride, methanol was distilled from magnesium methoxide, pyridine was distilled from, and stored over, potassium hydroxide and tetrahydrofuran was distilled from a purple solution of sodium benzophenone ketyl immediately before use. Hexane was distilled at 68° C. before use to remove involatile fractions. 2,3-O-Isopropylidene-L-gulono-1,4-lactone (9) [H. Ogura et al., J. Oro. Chem. 37, 72 (1972); G. W. J. Fleet Tetrahedron 45, 319 (1989)]and 2,3-O-isopropylidene-D-gulono-1,4-lactone (15) [L. M. Lerner et al., J. Org. […]
# The enzymes included human liver glycosidases and naringinase. The latter enzyme is a readily available endo-L-rhamnosidase described by Romero et al., Anal. Biochem. 149, 566 (1985).
# [1] = test system: rat epidodymal α-mannosidases; conditions: literature; cited from earlier work
# Lysosomal α-mannosidase = molecular target: T2, Lysosomal α-mannosidase (Homo sapiens, UniProt O00754); conditions: literature; cited from earlier work
# T2 sequence (O00754 50-1011): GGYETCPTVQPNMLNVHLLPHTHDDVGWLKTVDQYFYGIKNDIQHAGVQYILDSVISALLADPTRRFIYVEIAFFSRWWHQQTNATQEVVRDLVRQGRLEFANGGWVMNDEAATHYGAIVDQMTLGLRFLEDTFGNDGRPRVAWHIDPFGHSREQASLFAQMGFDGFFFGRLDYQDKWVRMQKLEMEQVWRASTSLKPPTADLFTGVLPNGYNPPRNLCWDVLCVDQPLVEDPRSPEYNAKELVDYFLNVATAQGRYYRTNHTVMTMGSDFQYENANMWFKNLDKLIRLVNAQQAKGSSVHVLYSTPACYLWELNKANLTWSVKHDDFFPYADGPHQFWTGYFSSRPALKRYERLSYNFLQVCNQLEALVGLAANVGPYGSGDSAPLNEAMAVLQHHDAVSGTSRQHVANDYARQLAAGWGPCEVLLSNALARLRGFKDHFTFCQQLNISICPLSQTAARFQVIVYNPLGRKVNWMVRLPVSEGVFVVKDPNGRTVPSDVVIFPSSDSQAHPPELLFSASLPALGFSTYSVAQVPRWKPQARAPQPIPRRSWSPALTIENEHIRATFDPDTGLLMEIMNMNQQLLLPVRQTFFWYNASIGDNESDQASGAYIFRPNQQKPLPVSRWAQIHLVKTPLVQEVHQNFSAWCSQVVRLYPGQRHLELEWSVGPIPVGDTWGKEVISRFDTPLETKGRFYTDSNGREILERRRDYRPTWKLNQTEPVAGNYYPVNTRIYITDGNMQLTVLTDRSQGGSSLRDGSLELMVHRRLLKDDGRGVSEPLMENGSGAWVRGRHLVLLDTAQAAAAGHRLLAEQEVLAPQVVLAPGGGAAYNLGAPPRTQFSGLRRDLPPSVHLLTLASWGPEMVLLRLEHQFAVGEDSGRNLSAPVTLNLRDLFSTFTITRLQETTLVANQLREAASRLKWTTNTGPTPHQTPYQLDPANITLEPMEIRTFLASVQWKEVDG
# apricot β-glucosidase = conditions: literature; cited from earlier work
Compound,inhibition at 1000 µM (cytosolic β-glucosidase) [%],IC50 (cytosolic β-glucosidase) [µM],Inhibition of rat epididymal α-mannosidase (in words) [1],Inhibition of human lysosomal α-mannosidase (in words) (Lysosomal α-mannosidase),Inhibition of apricot β-glucosidase (in words) (apricot β-glucosidase)
"C[C@H]1NC(=O)[C@@H](O)[C@@H](O)[C@@H]1O [D-Rhamno-1,5-lactam (6), 6-Deoxy-D-mannono-δ-lactam]",67,700,–,–,–
"O=C1N[C@H](CO)[C@@H](O)[C@H](O)[C@@H]1O [Mannono-1,5-lactam (2), D-mannonolactam]",98,50,powerful inhibitor,powerful inhibitor,powerful inhibitor
